In patent publication US8889153B2, “Combination of immunomodulator and anti-pathogenic agent” (priority 2008, dated 2014):
Where “and” joins values, the source holds several entries; their conditions need not be identical. Equal values may be shown once.

How the values were obtained:
Herpes sp = test: Patients with recurrent herpetic lesions (cutaneous and genital), symptom recurrence; type: in vivo, Herpes virus (host: human patients); details: Acyclovir alone, oral, 3 daily doses of 200 mg, 10 days
Candida sp = details: 20 HIV/AIDS patients per group, Fluconazole 400 mg/day × 5 days oral, Immunomodulator 10 mg/day × 5 days i.m.
Plasmodium chabaudi = test: Experimental Plasmodium chabaudi infection, survival and parasitemia; type: in vivo, Plasmodium chabaudi (host: C57BL/6 mice); details: for Survival/Number of animals: 21 days observation
M. tuberculosis-Erdman = system: M. tuberculosis-Erdman; set-up: species or system Mycobacterium tuberculosis (host: C57BL/6 mice); details: mouse, in vivo
L. monocytogenes [1] = details: experimental animals; PI0305373-3, U.S. Ser. No. 10/978,683, EPA 0426250.3.2405; cited from earlier work
[2] = system: TH-1 and TH-2 types cytokines (IL-2, IFN-gamma, IL-4, and IL-10); test: Cytokine dosage (sandwich-ELISA, Con-A stimulated spleen culture supernatant) in experimental L. monocytogenes infection; type: in vivo, BALB/c mice
HCV subtype I-b = test: Clinical trial in hepatitis C patients, laboratorial parameters; details: two patients (A and D) of 5; Immunomodulator 25 mg weekly i.m., 12 months; no treatment interruption
L. monocytogenes [3] = test: Experimental L. monocytogenes infection, lethal dose, survivors at 30 days; type: in vivo, Listeria monocytogenes (host: BALB/c mice); details: BALB/c mice, n = 10 per group, 2×10^6 L. monocytogenes i.p.; Immunomodulator 100 mg/kg single dose i.p.; Rifampicine 2 mg/kg and Gentamicin 2 mg/kg × 5 days
[4] = Group D: Chloroquine 5 mg/kg single i.p. dose
[5] = Group E: Chloroquine 2 mg/kg single i.p. dose
[6] = Control (non-infected) BALB/c mice, Immunomodulator 5 mg/kg/day i.p. 7 days
[7] = Infected 48 h (2×10^4 L. monocytogenes i.p.), Immunomodulator 5 mg/kg/day i.p. 7 days prior to inoculation
[8] = Infected 72 h (2×10^4 L. monocytogenes i.p.), Immunomodulator 5 mg/kg/day i.p. 7 days prior to inoculation
[9] = Group G: Immunomodulator 100 mg/kg i.p. single dose

In the case of `Nc1nc(=O)c2ncn(COCCO)c2[nH]1` [Acyclovir, 2-amino-9-[(2-hydroxyethoxy)methyl]-3,9-dihydro-6H-purin-6-one], the “average recurrence period of time of the disease symptoms” value (Herpes sp; first stage, 30 patients) was 2 months and the “average recurrence period of symptoms” value (Herpes sp; second stage, 15 patients) was 2 months.

In the case of `OC(Cn1cncn1)(Cn1cncn1)c1ccc(F)cc1F` [Antifungal], the “% Respondents” value (Candida sp) was 100% and the “Symptoms Average recurrence period” value (Candida sp; six months follow-up) was 45 days.

With `CCN(CC)CCCC(C)Nc1ccnc2cc(Cl)ccc12` (stereo not drawn) [Chloroquine, N′-(7-chloroquinolin-4-yl)-N,N-diethyl-pentane-1,4-Diamine] the Survival/Number of animals (Plasmodium chabaudi; Group B: Chloroquine 15 mg/kg single i.p. dose) was 6-6, the “Parasitemia (%) ± Standart deviation (SD)” value (Plasmodium chabaudi; Group B: Chloroquine 15 mg/kg single i.p. dose, day 5) was 17 ± 0.7 (day 5) % and the “Parasitemia (%) ± Standart deviation (SD)” value (Plasmodium chabaudi; Group B: Chloroquine 15 mg/kg single i.p. dose, day 21) was 8 ± 1.2 (day 21%. For the same compound, the “increase in survival rate compared to the control groups” value (Plasmodium chabaudi; Group D: Chloroquine 5 mg/kg) was 2 days, the Day of death (Plasmodium chabaudi; [4]) was 10 days and the Survival/Number of animals (Plasmodium chabaudi; [4]) was 0-6. The “Parasitemia (%) ± Standart deviation (SD)” value (Plasmodium chabaudi; Group D: Chloroquine 5 mg/kg single i.p. dose, day 5) was 65 ± 0.9 (day 5) %, the “difference in the survival rate to the control groups” value (Plasmodium chabaudi; Group E: Chloroquine 2 mg/kg) was “no significant difference” and the Day of death (Plasmodium chabaudi; [5]) was 8 days. For the same compound, the Survival/Number of animals (Plasmodium chabaudi; [5]) was 0-6 and the “Parasitemia (%) ± Standart deviation (SD)” value (Plasmodium chabaudi; Group E: Chloroquine 2 mg/kg single i.p. dose, day 5) was 89 ± 1.3 (day 5) %.

With `NNC(=O)c1ccncc1` [INH, pyridine-4-carbohydrazide, reference compound] the “Bacillary load - Lung + Standard Deviation (SD)” value (M. tuberculosis-Erdman) was 3.52 ± 0.65 and the “Bacillary load - Spleen + Standard Deviation (SD)” value (M. tuberculosis-Erdman) was 4.82 ± 0.62.

In the case of “proteic aggregate of ammonium and magnesium phospholinoleate-palmitoleate anhydride [Immunomodulator]”, the “Bacillary load - Lung + Standard Deviation (SD)” value (M. tuberculosis-Erdman) is given as 5.42 ± 0.59 and 4.85 ± 0.46, the “Bacillary load - Spleen + Standard Deviation (SD)” value (M. tuberculosis-Erdman) is given as 5.25 ± 0.61 and 4.93 ± 0.47 and the “protection against infection by lethal dose of L. monocytogenes” value (L. monocytogenes [1]) is given as “partial protection”. For the same compound, the IFN-γ [2, 6] was 1012 ± 41 pg/mL, the Il-2 [2, 6] was 167 ± 11 pg/mL and the Il-4 [2, 6] was 63 ± 19 pg/mL. For the same compound, the Il-10 [2, 6] was 227 ± 37 pg/mL, the IFN-γ [2, 7] was 1691 ± 62 pg/mL and the Il-2 [2, 7] was 206 ± 31 pg/mL. The Il-4 [2, 7] was 75 ± 18 pg/mL, the Il-10 [2, 7] was 224 ± 17 pg/mL and the IFN-γ [2, 8] was 1884 ± 70 pg/mL. The Il-2 [2, 8] was 248 ± 34 pg/mL, the Il-4 [2, 8] was 73 ± 11 pg/mL and the Il-10 [2, 8] was 221 ± 37 pg/mL. The Day of death (Plasmodium chabaudi; Group F: Immunomodulator 5 mg/kg × 5 days) was 11 days, the Survival/Number of animals (Plasmodium chabaudi; Group F: Immunomodulator 5 mg/kg × 5 days, start 1 day after infection) was 0-6 and the “Parasitemia (%) ± Standart deviation (SD)” value (Plasmodium chabaudi; Group F: Immunomodulator 5 mg/kg × 5 days, day 5) was 54 ± 0.8 (day 5) %. The Day of death (Plasmodium chabaudi; [9]) was 12 days, the Survival/Number of animals (Plasmodium chabaudi; [9]) was 0-6 and the “Parasitemia (%) ± Standart deviation (SD)” value (Plasmodium chabaudi; Group G: Immunomodulator 100 mg/kg i.p. single dose, day 5) was 52 ± 0.9 (day 5) %. The “increase in survival rate in relation to the control animals” value (Plasmodium chabaudi; Groups F and G: Immunomodulator 5 mg/kg × 5 days and 100 mg/kg single dose) was 3 to 4 days, the “tolerance at the site of injection” value (HCV subtype I-b) was “mild pain and discomfort at the site of injection” and the “% surviving animals - 30 days” value (L. monocytogenes [3]) was 30%. The “Number surviving animals - 30 days” value (L. monocytogenes [3]) was 3.
